Experiments:
ARHGEF2 = conditions: cited from earlier work; for effect on ARHGEF2 activation: GPCR ligands; for effect on ARHGEF2 release from microtubules and RHOA activation: disruption of polymerized microtubules
14-3-3 = molecular target: T1, 14-3-3 (Mus musculus, UniProt P63101); experiment: Microscale thermophoresis; type: binding, murine; conditions: MST; peptides at 100 nM; GST-14-3-3 serial dilutions 195 μM to 2 nM; 20 mM HEPES pH 7.4, 150 mM NaCl, 1 mM DTT, 0.05 % Tween20; three independent experiments
T1 sequence (P63101 1-245): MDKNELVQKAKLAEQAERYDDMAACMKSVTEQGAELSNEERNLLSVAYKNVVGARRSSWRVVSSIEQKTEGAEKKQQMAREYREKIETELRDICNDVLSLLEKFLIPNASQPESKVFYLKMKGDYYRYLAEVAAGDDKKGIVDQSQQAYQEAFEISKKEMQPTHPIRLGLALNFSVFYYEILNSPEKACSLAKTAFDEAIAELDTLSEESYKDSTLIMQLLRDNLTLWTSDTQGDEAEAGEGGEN

[1] = system: ARHGEF2 Ser^151 phosphorylation; experiment: Western blot of ARHGEF2 Ser^151 phosphorylation in treated HEK293T cells; type: cell-based; conditions: 1mM for 6 hours, normalized with total ARHGEF2, three independent experiments

Compound: lysophosphatidic acid
- effect on ARHGEF2 activation (ARHGEF2): trigger activation of ARHGEF2

Compound: SSLSLAKSV[(p)Ser^151]TTNIAG[Lys(FITC)]
- binding to 14-3-3 (in words) (14-3-3): no binding was detected

Compound: COc1cc2c(c(OC)c1OC)-c1ccc(OC)c(=O)cc1[C@@H](NC(C)=O)CC2 [Colchicine]
- effect on ARHGEF2 release from microtubules and RHOA activation (ARHGEF2): release ARHGEF2 and lead to potent activation of RHOA

Compound: RRPLDPRRR[(p)Ser885]LPAGDA[Lys(FITC)]
- binding to 14-3-3 (in words) (14-3-3): no binding was detected

Compound: thrombin
- effect on ARHGEF2 activation (ARHGEF2): trigger activation of ARHGEF2

Compound: COC(=O)Nc1nc2ccc(C(=O)c3cccs3)cc2[nH]1 [Nocodazol]
- effect on ARHGEF2 release from microtubules and RHOA activation (ARHGEF2): release ARHGEF2 and lead to potent activation of RHOA

Compound: NC(=O)c1ncn([C@@H]2O[C@H](COP(=O)(O)O)[C@@H](O)[C@H]2O)c1N [5-Aminoimidazole-4-carboxamide ribonucleotide]
- ARHGEF2 Ser^151 phosphorylation [1]: no apparent change in phosphorylation of this residue was observed

Compound: CC(=O)O[C@H]1C(=O)[C@@]2(C)[C@H]([C@H](OC(=O)c3ccccc3)[C@]3(O)C[C@H](OC(=O)[C@H](O)[C@@H](NC(=O)c4ccccc4)c4ccccc4)C(C)=C1C3(C)C)[C@]1(OC(C)=O)CO[C@@H]1C[C@@H]2O [Paclitaxel]
- effect on ARHGEF2 release from microtubules and RHOA activation (ARHGEF2): an effect that can be reversed by the microtubule stabilizing drug Paclitaxel
